Experimental findings from US9873883B2, “Glyphosate resistant plants and associated methods” (Dow AgroSciences LLC, priority 2012, dated 2018) are described below.

Assay [1] has as its target T1, Brassica napus (canola) EPSP synthase DGT-3 (GENBANK P17688) variant DGT-3 v8 (T→I, P→S; TIPS) (Brassica napus, UniProt P17688, P178S/T174I).
T1 construct: made in house; host or cells: E. coli Rosetta2 (DE3)
T1 sequence (P17688 73-516 T174I/P178S): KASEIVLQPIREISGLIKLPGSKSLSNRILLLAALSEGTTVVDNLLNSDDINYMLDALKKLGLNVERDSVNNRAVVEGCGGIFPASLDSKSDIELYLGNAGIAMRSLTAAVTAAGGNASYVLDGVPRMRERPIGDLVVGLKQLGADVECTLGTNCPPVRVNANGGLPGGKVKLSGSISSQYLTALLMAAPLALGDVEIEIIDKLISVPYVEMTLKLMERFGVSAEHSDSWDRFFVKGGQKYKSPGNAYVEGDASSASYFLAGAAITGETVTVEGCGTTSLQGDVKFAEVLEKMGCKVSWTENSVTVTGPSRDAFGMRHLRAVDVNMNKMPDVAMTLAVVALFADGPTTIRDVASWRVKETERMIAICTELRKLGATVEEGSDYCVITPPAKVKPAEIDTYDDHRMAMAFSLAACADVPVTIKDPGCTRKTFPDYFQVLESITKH
The assay is described as follows: In vitro kinetic assay (inorganic phosphate production, malachite green). Format: biochemical. The source says:
(§1) The following Class I enzymes: DGT-1 from Glycine max, DGT-3 from Brassica napus (GENBANK ACC NO: P17688), and DGT-7 from Triticum aestivum (GENBANK ACC NO: EU977181) were used as a comparison. The Class I EPSP synthase enzymes and mutant variants thereof were synthesized and evaluated. A mutation introduced into the plant EPSP synthase enzymes consisted of the Glycine to Alanine mutation made within the EPSP synthase enzyme at a similar location as that of the G96A mutation from the E. coli version of the enzyme. In addition, Threonine to Isoleucine and Proline to Serine mutations were introduced within these Class I EPSP synthase enzymes at analogous positions as that of amino acid 97 (T to I) and amino acid 101 (P to S) in the EPSP synthase of E. coli as described in Funke et al., (2009).
(§2) The location of the amino acid residue which was mutated from glycine to alanine is indicated by the first asterisk. The location of the amino acid residue which was mutated from threonine to isoleucine is indicated by the second asterisk. The location of the third amino acid residue which was mutated from proline to serine is indicated by the third asterisk. These mutations were introduced into different versions of DGT-1, DGT-3, and DGT-7. The different versions of the genes which contain the mutations are described in more detail below.
(§3) Additional constructs containing the dgt-1, dgt-3 and dgt-7 were synthesized. These constructs were used for in vitro testing of the dgt-1 v5, dgt-1 v6, dgt-1 v7, dgt-1 v8, dgt-3 v6, dgt-3 v7, dgt-3 v8, dgt-7 v5, dgt-7 v6, dgt-7 v7, and dgt-7 v8 gene sequences were outsourced to GeneArt for synthesis and cloning. The synthesized genes were cloned into the pET28 expression vector. The resulting constructions were labeled as pDAB102028 containing dgt-1 v5, pDAB102029 containing dgt-1 v6, pDAB102032 containing dgt-1 v7, pDAB102034 containing dgt-1 v8, pDAB100429 containing dgt-3 v6, pDAB100442 containing dgt-3 v7, pDAB100430 containing dgt-3 v8, pDAB102036 containing dgt-7 v5, pDAB102038 containing dgt-7 v6, pDAB102040 containing dgt-7 v7, and pDAB102042 containing dgt-7 v8.
(§4) Recombinant DGT proteins were overexpressed in Rosetta2™ (DE3) cells (Novagen, Madison, Wis.) from the constructs described above. A single colony was used to inoculate 50 mL starter cultures of LB containing chloramphenicol (25 μg/mL) and kanamycin (50 μg/mL) which were cultivated overnight at 37° C. The overnight cultures were used to inoculate 1 L of LB containing chloramphenicol (25 μg/mL) and kanamycin (50 μg/mL). The cultures were grown at 37° C. to an O.D.600=0.6 then placed in an ice water bath for 10 minutes. Expression of the target proteins was achieved by addition of IPTG to a final concentration of 500 μM. Induction was allowed to proceed overnight at 20° C. followed by harvesting via centrifugation at 8,000 rpm for 20 minutes. The cell pellets were stored at −80° C. until required for purification. All purification steps were carried out at 4° C.
(§5) Cell pellets from 1 L cultures were resuspended in 20-30 mL Buffer A (50 mM HEPES pH 7.5, 150 mM KCl, 2 mM DTT, 1 mM EDTA, 20 mM imidazole, and 5% glycerol). COMPLETE™ protease inhibitor cocktail (1 tablet/50 mL, Roche, Indianapolis, Ind.) and lysozyme (1 mg/mL, Sigma-Aldrich, St. Louis, Mo.) were then added and the suspension was stirred for 20 minutes. Cell lysis was performed using a Branson Sonifier 250 (3×60 second bursts) followed by removal of the cell debris by centrifugation at 16,000 rpm for 45 minutes. DGT enzymes were purified to homogeneity in one step via immobilized metal affinity chromatography (IMAC) using a 5 mL HisTrap FF crude column. The column was equilibrated in Buffer A and the sample was loaded in the same buffer. The column was then washed with 10 column volumes of Buffer A followed by elution in a 0-100% Buffer B (50 mM HEPES pH 7.5, 200 mM KCl, 2 mM DTT, 1 mM EDTA, 500 mM imidazole, and 5% glycerol) linear gradient over 25 column volumes. […]

Assay [2] deals with T2, Triticum aestivum (wheat) EPSP synthase DGT-7 variant DGT-7 v6 (G→A) (Triticum aestivum, UniProt B5M6A1, G167A).
T2 sequence (B5M6A1 with tags, fused parts or gaps G167A): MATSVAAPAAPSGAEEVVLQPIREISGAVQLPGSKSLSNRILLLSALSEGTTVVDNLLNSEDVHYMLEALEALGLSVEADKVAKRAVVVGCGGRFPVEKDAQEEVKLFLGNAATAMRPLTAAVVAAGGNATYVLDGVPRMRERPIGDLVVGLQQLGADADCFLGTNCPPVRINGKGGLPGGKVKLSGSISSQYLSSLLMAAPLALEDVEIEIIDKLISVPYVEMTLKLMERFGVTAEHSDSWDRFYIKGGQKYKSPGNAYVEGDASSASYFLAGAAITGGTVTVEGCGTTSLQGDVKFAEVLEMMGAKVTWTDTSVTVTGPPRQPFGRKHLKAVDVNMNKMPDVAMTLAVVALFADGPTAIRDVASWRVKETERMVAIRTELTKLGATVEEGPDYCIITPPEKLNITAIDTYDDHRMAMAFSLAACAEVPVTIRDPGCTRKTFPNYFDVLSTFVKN
The description is as above. Format: biochemical. The note with it: for IC50: IC50 (glyphosate).
From the text: as §1, §2, §3, §4, §5

Broadly, the kcat/Km is the turnover number divided by the Michaelis constant. For the compound `C=C(OP(=O)(O)O)C(=O)O` [PEP, phosphoenolpyruvate], the kcat/Km in assay [1] (PEP, pH 7.5, 1 mM S3P) was found to be 32900 M⁻¹ s⁻¹. In addition, the “increase of Km for PEP” value in assay [2] (G to A mutation vs un-mutated) was around 8 fold.

By IC50 is commonly meant the concentration at which inhibition is half-maximal. For the compound `O=C(O)CNCP(=O)(O)O` [glyphosate, N-(phosphonomethyl)glycine], the IC50 is 4.8 mM in assay [1] (IC50 (glyphosate), at 60 μM PEP); 13.3 mM in assay [1] (IC50 (glyphosate), at 1 mM PEP); 3 to 6 mM in assay [1] (tolerance to glyphosate, PEP concentration not given); 15.1 mM in assay [2] (at 60 μM PEP); 8.1 mM in assay [2] (at 1 mM PEP).
